Laboratory results published in patent publication US20080170990A1, “Methods for Myocardial Imaging in Patients Having a History of Pulmonary Disease” (CV THERAPEUTICS, INC., priority 2006, published 2008).

Key:
awake rats = assay: Sympathoexcitation: heart rate, blood pressure and plasma catecholamines after i.v. bolus (Example 5); type: in vivo, rat; conditions: in the presence of hexamethonium 10 mg/kg, n=5
Procedure: CVT (0.31 μg/kg-50 μg/kg) was given as a rapid i.v. bolus to awake rats and heart rate (HR) and blood pressure (BP) were monitored. Regadenoson caused an increase in BP and systolic pressure (SP) at lower doses while at higher doses there was a decrease in BP and SP. […] The increase in HR was evident at the lowest dose of CVT at which there was no appreciable decrease in BP. ZM241385 (30 μg/kg, N=5), an A2A adenosine receptor antagonist, attenuated the decrease in BP (Regadenoson: 14±3%, ZM: 1±1%) and the increase in HR (CVT: 27±3%, ZM: 18±3%) caused by Regadenoson. Pretreatment with metoprolol (MET, 1 mg/kg, n=5), a beta-blocker, attenuated the increase in HR (CVT: 27±3%, MET: 15±2%), but had no effect on hypotension caused by Regadenoson. In the presence of hexamethonium (HEX, 10 mg/kg, n=5), a ganglionic blocker, the tachycardia was prevented (CVT: 27±3%, HEX: −1±2%), but BP was further reduced (CVT: −11±2%, HEX: −49±5%).

[1] = test system: subjects undergoing stress/rest MPI; assay: Stress/rest SPECT myocardial perfusion imaging, adenosine vs Regadenoson (Example 6); type: in vivo, human; conditions: SPECT MPI, 17-segment model; p=n.s.
Procedure: To determine the ability of Regadenoson to produce coronary hyperemia and accurately detect CAD, 35 subjects (26 men, 9 women; 67±10 years) underwent both A and Regadenoson stress/rest MPI, with 10.0±9.1 days between studies. […] Regadenoson [400 mcg (n=18), 500 mcg (n=17)] was administered as an IV bolus immediately followed by a saline flush, and then a Tc-99m radiopharmaceutical [sestamibi (n=34), tetrofosmin (n=1)]. SPECT images were uniformly processed, intermixed with control studies (normal and fixed-only defects), and interpreted by three observers in a blinded fashion using a 17-segment model. Quantitative analysis was also performed using 4D MSPECT. In addition to three separate readings, a consensus interpretation was performed and then a direct, same-screen comparison of A and REGADENASON images undertaken to determine relative differences, using 5 regions per study.

[2] = test system: patients undergoing a clinically indicated coronary catheterization; assay: Coronary blood flow velocity (CBFv) by Doppler flow wire after IV bolus, open label study (Example 1); type: in vivo, human; conditions: 18 μg intracoronary (IC) Ado; mean ±SD
Procedure: The purpose of this open label study was to determine the magnitude and duration of effect of Regadenoson (10-500 μg) on CBFv in humans.
Patients undergoing a clinically indicated coronary catheterization with no more than a 70% stenosis in any coronary artery and no more than a 50% stenosis of the study vessel had CBFv determined by Doppler flow wire. Study subjects were selected after measuring baseline and peak CBFv after an intracoronary (IC) injection of 18 μg of Ado. Twenty-three patients, who were identified as meeting the study criteria of having a peak to baseline CBFv ration of ≧2.5 in response to Adenosine, received a rapid (≦10 sec) peripheral IV bolus of Regadenoson; Doppler signals were stable and interpretable over the time-course of the increase in CBFv in 17 patients.

COPD patients = conditions: both, human, in vivo
Source text: COPD patients were selected from two phase III randomized, triple-blind, placebo-controlled, multicenter studies (N=2,015) designed to test the strength of agreement for reversible cardiac defects between ADO and REG. There were 35 patients in the ADO group and 69 in the Regadenoson group. Age and gender were similar between ADO (68=11 yrs; 77% male) and Regadenoson group (68±11 yrs; 81% male). Of the 35 patients, 5 suffered (14%) cardiac symptoms in the ADO group vs 3/69 (4%) in the Regadenoson group (p=0.12); 14/35 (40%) in the ADO vs. 20/69 (29%) in the Regadenoson group resorted respiratory symptoms (p=0.28). Angina, occurrence of second degree AV block, acute pulmonary oedema and ronchi were higher in ADO group; nausea, GI discomfort and headache occurred more often in the Regadenoson group.

Row | SMILES | BP change caused by Regadenoson (awake rats) [%] | HR change (tachycardia) caused by Regadenoson (awake rats) [%] | summed score following stress, visual analysis [1] | peak to baseline CBFv ratio [2] | patients with cardiac symptoms (COPD patients) [%] | patients with cardiac symptoms, number (COPD patients) | patients with respiratory symptoms (COPD patients) [%] | patients with respiratory symptoms, number (COPD patients)
1 | C[N+](C)(C)CCCCCC[N+](C)(C)C [hexamethonium, reference compound] | −49±5 | −1±2 | – | – | – | – | – | –
2 | Nc1ncnc2c1ncn2[C@@H]1O[C@H](CO)[C@@H](O)[C@H]1O [ADO, adenosine, reference compound] | – | – | 133.9±1.5 | 3.2±0.5 | 14 | 5 | 40 | 14/35
